The values below come from ChEMBL document CHEMBL1201862, “PubChem BioAssay data set” (2004).

Active and inactive are the calls of the source. Where only a bound is given, the exact number is not on record here.

In series [1] the target is Heat shock cognate 71 kDa protein (Homo sapiens, UniProt P11142). Briefly: In Vitro Hsc70 Dose Response Fluorescence Polarization Assay. [Related pubchem assays: 1072 ].
The target in series [2] is T1, Zinc finger protein mex-5 (Caenorhabditis elegans, UniProt Q9XUB2).
T1 sequence (Q9XUB2 whole entry): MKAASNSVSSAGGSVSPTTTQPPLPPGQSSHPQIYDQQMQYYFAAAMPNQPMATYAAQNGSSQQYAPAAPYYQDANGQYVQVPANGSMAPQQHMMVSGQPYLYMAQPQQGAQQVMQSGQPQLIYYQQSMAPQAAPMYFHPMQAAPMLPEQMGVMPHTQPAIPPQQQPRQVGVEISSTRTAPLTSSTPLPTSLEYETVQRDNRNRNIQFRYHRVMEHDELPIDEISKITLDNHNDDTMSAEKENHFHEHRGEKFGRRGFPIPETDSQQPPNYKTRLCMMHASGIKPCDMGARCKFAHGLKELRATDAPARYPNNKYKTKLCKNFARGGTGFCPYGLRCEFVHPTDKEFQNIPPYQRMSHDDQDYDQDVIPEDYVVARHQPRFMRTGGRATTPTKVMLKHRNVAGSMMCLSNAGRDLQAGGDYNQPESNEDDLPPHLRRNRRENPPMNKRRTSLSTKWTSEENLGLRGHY
In words: potency of MEX-5 RNA-binding blockers – biochemical, C. elegans, fluorescence polarization, dose response (AID 1960).

For series [3], the target named is Heat shock 70 kDa protein 1A (Homo sapiens, UniProt P0DMV8). Briefly: inhibition of Hsp70 binding activity – biochemical, fluorescence polarization, SAR follow-up (AID 1072).
Chain of Heat shock 70 kDa protein 1A (P0DMV8 whole entry): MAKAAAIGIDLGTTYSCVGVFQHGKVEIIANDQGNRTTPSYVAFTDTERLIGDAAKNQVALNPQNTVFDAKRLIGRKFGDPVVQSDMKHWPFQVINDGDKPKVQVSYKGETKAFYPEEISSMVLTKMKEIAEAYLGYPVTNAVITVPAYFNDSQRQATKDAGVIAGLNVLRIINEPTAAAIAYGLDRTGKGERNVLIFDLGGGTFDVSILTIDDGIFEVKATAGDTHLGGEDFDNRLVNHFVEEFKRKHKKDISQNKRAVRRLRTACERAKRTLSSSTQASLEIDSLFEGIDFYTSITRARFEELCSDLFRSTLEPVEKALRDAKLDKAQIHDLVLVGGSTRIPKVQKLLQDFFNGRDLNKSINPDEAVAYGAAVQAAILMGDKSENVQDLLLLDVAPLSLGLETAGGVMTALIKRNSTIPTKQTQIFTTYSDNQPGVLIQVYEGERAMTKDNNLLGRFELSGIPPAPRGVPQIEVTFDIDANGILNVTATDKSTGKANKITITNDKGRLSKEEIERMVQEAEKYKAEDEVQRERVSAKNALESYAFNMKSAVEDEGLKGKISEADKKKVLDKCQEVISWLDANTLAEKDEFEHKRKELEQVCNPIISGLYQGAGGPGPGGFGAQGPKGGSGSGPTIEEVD
For series [4], the target named is Induced myeloid leukemia cell differentiation protein Mcl-1 (Homo sapiens, UniProt Q07820). Format: functional.
Chain of Induced myeloid leukemia cell differentiation protein Mcl-1 (Q07820 whole entry): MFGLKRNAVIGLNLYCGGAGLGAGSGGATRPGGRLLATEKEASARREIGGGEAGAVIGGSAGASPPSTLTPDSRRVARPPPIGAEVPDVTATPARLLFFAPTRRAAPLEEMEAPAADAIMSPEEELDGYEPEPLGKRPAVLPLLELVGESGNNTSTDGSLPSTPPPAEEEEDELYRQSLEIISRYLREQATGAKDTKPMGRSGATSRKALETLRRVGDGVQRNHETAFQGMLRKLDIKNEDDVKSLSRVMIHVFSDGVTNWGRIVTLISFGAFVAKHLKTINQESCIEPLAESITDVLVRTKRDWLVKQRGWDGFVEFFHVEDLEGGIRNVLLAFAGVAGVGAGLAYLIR
Series [5] addresses Estrogen receptor beta (Homo sapiens, UniProt Q92731). Briefly: blockers of SRC-3 recruitment to ERβ – biochemical, ELISA, streptavidin-HRP readout, orthogonal assay, confirmation (AID 1060).
For series [6], the target named is Glyceraldehyde-3-phosphate dehydrogenase (Homo sapiens, UniProt P04406).
Chain of Glyceraldehyde-3-phosphate dehydrogenase (P04406 whole entry): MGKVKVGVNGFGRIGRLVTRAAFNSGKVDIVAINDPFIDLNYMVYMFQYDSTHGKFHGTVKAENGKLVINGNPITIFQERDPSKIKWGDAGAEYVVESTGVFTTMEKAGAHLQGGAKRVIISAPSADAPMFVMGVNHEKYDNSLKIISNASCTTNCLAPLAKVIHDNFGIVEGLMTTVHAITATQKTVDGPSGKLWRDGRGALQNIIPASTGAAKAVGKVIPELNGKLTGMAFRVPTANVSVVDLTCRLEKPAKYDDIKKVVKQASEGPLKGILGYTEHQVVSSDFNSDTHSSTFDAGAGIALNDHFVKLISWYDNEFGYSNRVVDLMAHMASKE
Series [7] concerns the target T2, Estrogen receptor (Homo sapiens, UniProt P03372).
T2 sequence (P03372 whole entry): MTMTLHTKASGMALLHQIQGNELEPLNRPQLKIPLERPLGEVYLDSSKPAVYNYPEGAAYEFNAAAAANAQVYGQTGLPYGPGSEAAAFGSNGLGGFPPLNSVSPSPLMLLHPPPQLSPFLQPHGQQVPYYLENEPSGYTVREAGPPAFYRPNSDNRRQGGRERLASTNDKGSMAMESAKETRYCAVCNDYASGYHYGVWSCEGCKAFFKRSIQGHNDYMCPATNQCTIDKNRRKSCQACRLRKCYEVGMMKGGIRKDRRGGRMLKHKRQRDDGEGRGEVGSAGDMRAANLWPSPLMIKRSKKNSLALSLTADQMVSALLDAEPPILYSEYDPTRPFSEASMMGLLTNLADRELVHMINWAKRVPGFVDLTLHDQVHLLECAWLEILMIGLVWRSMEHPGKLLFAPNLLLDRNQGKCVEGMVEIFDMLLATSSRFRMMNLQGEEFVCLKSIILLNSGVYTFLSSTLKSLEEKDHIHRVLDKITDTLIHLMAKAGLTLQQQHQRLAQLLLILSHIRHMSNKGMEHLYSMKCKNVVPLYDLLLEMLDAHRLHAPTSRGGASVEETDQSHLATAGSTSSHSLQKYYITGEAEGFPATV

Series [8] concerns the target T3, RNA-binding protein pos-1 (Caenorhabditis elegans, UniProt G5EF15).
T3 sequence (G5EF15 whole entry): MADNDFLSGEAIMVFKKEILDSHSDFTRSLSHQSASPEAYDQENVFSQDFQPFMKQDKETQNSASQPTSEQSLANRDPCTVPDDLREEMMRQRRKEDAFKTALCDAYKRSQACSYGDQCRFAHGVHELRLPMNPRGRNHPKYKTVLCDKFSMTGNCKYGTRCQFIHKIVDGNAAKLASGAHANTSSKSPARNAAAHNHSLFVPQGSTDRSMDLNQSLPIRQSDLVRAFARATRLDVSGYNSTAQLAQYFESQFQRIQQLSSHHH
Briefly: disruptors of C. elegans POS-1 RNA interaction – biochemical, fluorescence polarization, dose response (AID 1964).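 Also: purified POS-1 fused to maltose binding protein made in E. coli; potency of compounds blocking POS-1 binding to fluorescent RNA.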

Series [9] concerns the target T4, Hexokinase HKDC1 (Homo sapiens, UniProt Q2TB90).
T4 sequence (Q2TB90 whole entry): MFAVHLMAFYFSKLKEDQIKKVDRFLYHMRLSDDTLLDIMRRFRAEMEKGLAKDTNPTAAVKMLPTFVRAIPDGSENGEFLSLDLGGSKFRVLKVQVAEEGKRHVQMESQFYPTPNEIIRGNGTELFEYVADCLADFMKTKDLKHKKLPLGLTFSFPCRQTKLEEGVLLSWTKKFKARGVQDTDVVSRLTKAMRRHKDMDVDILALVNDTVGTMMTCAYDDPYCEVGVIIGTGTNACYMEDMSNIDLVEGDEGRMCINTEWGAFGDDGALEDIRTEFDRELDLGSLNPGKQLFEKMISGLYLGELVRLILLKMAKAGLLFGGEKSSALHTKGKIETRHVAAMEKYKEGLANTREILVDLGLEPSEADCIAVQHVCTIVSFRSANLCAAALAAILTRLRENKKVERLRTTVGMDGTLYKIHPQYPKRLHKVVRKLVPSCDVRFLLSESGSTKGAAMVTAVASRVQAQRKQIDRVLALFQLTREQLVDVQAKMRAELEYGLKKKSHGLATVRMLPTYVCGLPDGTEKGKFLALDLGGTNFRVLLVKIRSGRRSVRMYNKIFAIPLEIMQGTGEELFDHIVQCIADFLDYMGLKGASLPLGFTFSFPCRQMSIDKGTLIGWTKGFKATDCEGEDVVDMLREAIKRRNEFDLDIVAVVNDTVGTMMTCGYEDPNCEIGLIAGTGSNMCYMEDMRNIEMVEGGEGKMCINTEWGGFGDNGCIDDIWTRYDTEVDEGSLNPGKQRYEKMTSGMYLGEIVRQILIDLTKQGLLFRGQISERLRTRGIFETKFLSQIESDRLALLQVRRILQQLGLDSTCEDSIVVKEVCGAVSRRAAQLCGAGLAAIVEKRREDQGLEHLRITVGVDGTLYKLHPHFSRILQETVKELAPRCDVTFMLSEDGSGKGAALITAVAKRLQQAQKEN
In words: activation of HKDC1 glucose phosphorylation – biochemical, W721R variant, dose response (AID 504730). Format: functional.

Series [10] can be described thus: viability of PTEN-deleted HCT116 cells – cell-based, HCT116 PTEN knockout, dose response (AID 1047).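 Also: HCT116 colon tumor cells with PTEN knocked out; cells exposed to compound for 60 hours before readout; potency for loss of cell viability measured by luminescence.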 In kind it is functional.
The nature of series [11]: viability of HCT116 lacking mutant beta-catenin – cell-based, human colon tumor, dose response (AID 1045).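 Also: HCT116 colon tumor cells with beta catenin knocked out; cells exposed to compound for 60 hours.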 Format: functional.
For series [12], the target named is T5, Hexokinase-1 (Homo sapiens, UniProt P19367).
T5 sequence (P19367 whole entry): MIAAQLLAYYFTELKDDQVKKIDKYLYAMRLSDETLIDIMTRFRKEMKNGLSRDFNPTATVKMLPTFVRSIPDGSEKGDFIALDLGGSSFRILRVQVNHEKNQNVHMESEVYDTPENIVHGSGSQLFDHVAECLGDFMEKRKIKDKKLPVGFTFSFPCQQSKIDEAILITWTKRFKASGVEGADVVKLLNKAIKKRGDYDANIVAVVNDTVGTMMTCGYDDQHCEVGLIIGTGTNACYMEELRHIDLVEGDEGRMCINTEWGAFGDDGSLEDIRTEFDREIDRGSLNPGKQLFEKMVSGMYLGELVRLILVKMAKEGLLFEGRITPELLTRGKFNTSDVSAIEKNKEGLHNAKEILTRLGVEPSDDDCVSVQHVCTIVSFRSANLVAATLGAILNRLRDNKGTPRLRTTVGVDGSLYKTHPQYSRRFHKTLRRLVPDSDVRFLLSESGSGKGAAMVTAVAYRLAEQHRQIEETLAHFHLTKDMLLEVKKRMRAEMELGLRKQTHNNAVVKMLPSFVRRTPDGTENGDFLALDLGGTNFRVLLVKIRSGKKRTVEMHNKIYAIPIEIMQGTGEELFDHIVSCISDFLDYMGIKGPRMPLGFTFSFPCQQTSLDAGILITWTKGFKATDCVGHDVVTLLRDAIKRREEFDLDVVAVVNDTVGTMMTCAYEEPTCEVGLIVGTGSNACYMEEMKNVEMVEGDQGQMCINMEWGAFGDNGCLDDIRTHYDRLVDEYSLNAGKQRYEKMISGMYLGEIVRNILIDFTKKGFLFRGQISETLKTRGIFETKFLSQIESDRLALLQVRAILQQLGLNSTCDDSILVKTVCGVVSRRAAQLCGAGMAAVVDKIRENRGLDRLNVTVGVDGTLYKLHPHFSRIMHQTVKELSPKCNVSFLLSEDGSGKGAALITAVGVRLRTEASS
In words: HK1 enzyme activation by HKDC1 hits – biochemical, selectivity assay for HKDC1 activator project, dose response (AID 504762). Format: functional.

Series [13] relates to HEK293. Briefly: inhibition of NOD1-driven NF-kB reporter – cell-based, luminescence, uHTS, primary screen (AID 1578). In kind it is functional. As to conditions: Homo sapiens.
The test system of series [14] is HEK293. Briefly: NOD2 signaling inhibitors in MDP-stimulated cells, cell-based, uHTS, luminescence (AID 2001). In kind it is functional. As to conditions: Homo sapiens.
In series [15] the test system is HEK293. In words: cells. Format: functional, cell-based. As to conditions: Homo sapiens.
In series [16] the test system is HEK293. Briefly: cells. In kind it is functional, cell-based. As to conditions: Homo sapiens. The source holds these as a separate data set.
The target in series [17] is Nucleotide-binding oligomerization domain-containing protein 2 (Homo sapiens, UniProt Q9HC29). In words: inhibition of NOD2-driven NF-kB reporter – cell-based, luminescence, uHTS, HEK293 (AID 1566). In kind it is functional.
Chain of Nucleotide-binding oligomerization domain-containing protein 2 (Q9HC29 whole entry, the tested form may be a part): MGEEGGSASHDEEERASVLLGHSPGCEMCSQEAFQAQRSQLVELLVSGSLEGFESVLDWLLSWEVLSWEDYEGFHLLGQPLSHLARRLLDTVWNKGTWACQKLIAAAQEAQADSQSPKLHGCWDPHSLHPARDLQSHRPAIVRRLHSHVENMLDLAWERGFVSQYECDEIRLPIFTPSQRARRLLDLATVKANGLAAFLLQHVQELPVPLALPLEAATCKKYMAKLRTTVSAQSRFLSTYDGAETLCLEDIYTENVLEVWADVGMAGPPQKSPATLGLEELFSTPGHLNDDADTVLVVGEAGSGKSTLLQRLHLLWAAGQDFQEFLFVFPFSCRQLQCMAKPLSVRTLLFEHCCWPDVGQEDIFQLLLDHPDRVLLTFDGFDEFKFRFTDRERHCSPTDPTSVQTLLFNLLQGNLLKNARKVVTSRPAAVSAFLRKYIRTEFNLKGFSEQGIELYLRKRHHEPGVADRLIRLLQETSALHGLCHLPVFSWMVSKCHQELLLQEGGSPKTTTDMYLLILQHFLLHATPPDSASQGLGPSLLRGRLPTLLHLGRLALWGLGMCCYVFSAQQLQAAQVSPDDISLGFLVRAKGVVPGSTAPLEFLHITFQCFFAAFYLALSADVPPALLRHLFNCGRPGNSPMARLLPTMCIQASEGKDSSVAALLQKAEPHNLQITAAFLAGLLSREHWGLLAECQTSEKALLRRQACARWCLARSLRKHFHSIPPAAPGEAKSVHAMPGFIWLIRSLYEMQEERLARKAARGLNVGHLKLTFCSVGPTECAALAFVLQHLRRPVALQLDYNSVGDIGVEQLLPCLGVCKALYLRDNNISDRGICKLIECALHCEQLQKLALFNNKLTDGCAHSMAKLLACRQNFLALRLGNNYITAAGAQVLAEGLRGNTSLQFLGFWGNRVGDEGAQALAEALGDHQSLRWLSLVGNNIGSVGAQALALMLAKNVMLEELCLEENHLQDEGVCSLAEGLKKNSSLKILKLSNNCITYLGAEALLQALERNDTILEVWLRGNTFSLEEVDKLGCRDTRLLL
The subject of series [18] is HEK293. In words: cells. In kind it is functional, cell-based. As to conditions: Homo sapiens. This is another data set of the same source.
Series [19] addresses Melanin-concentrating hormone receptor 1 (Homo sapiens, UniProt Q99705). In words: Late-stage fluorescence-based counterscreen for antagonists of the G-protein coupled receptor 7 (GPR7): cell-based dose response assay to identify antagonists of the melanin-concentrating hormone receptor 1 (MCHR1). [Related pubchem assays (depositor defined):AID1861, AID1880, AID1952, AID2148, AID2251, AID2257, AID485339]. Format: functional.

Series [20] can be described thus: Luminescence Cell-Based Dose Response HTS to Identify Inhibitors of 5'UTR Stem-Loop Driven Prion Protein mRNA Translation in H4 Neuroglioblastoma Cells. [Related pubchem assays: 1827 (Project Summary), 1813 (Primary HTS)]. In kind it is functional.
The nature of series [21]: luciferase reporter signal suppression in cells – H4 neuroglioma cells, luminescence, dose response (AID 1990). In kind it is functional, cell-based.
A short description of series [22]: alpha-synuclein stem-loop luciferase translation blockers – H4 neuroglioma cells, luminescence, confirmation (AID 1988). In kind it is functional, cell-based.
Series [23] concerns Streptococcus sp. 'group A'. Briefly: Streptococcus pyogenes SK(-)GAS viability under kanamycin – luminescence, BacTiterGlo, confirmation, counter-screen for streptokinase expression inhibitor project, dose response (AID 1900). In kind it is functional, organism-based.
The test system of series [24] is Streptococcus. In words: GAS UMAA2166 growth inhibition – luminescence, BacTiterGlo, counter-screen for streptokinase expression inhibitor project, dose response (AID 1915).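 Also: potency for reduction of bacterial viability or growth.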 Format: functional, organism-based.
Series [25] concerns the target T6, Cytochrome P450 2D6 (Homo sapiens, UniProt P10635).
For series [26], the target named is ORF 73 (Human herpesvirus 8, UniProt O40947). In words: KSHV LANA DNA-binding disruption – biochemical, fluorescence polarization, cherry-picked samples, dose response (AID 504725).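 Also: fluorescence polarization of a labeled DNA duplex reporting LANA DNA binding; potency is for inhibitors that block LANA binding to the DNA.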 Further details: species or system Human gammaherpesvirus 8.
Chain of ORF 73 (O40947 whole entry): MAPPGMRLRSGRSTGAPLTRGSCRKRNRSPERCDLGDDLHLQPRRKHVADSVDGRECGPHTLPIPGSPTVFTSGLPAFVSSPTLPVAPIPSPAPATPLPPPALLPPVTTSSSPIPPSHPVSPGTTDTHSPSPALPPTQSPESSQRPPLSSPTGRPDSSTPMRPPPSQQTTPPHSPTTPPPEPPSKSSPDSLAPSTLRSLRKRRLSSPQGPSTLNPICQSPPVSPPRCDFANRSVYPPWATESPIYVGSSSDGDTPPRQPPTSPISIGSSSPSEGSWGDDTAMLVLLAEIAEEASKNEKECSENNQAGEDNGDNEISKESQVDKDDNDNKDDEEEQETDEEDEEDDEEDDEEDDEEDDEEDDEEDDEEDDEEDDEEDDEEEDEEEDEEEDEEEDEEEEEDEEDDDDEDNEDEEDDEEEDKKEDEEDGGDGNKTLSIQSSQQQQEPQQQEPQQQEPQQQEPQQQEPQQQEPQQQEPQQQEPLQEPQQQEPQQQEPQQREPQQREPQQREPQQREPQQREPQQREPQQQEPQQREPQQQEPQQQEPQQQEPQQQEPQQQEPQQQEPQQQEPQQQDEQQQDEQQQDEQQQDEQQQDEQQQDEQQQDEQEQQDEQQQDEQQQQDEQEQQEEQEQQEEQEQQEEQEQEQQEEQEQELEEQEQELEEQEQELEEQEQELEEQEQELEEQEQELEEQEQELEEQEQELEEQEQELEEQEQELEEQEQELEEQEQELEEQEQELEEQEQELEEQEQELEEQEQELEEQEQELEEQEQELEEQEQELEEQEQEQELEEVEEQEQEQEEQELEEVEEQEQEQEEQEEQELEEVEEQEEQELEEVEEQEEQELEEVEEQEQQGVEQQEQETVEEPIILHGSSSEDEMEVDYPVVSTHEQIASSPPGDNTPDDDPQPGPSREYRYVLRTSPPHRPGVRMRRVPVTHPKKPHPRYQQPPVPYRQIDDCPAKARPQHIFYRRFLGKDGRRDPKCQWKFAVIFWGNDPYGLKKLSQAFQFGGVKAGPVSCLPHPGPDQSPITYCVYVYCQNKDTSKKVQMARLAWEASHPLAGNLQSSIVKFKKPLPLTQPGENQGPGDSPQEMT
The target in series [27] is T6, Cytochrome P450 2D6. The source holds these as a separate data set.

T6 sequence (P10635 whole entry): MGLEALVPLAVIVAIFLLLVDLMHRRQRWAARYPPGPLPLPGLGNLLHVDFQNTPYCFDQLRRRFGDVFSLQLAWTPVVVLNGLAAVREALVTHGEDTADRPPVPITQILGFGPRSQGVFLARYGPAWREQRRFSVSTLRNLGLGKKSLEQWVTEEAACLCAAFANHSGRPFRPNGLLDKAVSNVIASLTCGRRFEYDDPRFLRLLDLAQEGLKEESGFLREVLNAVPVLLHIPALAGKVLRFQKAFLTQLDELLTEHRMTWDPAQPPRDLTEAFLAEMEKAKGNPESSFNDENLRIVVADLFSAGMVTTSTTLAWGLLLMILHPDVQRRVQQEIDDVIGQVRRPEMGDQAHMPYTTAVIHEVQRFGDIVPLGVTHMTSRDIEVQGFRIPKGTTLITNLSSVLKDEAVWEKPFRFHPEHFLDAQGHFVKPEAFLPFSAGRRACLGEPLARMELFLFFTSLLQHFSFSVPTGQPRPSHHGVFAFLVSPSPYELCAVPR
Chain of Melanin-concentrating hormone receptor 1 (Q99705 whole entry): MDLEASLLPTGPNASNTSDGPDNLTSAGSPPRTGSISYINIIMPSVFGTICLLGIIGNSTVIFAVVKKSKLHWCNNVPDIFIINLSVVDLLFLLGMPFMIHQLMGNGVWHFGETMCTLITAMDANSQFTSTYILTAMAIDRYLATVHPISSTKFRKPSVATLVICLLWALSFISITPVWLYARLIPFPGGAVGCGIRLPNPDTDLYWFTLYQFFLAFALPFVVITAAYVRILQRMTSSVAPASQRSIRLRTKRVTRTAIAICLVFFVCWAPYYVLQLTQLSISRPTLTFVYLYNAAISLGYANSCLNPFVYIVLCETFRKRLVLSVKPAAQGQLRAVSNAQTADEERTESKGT
Chain of Heat shock cognate 71 kDa protein (P11142 whole entry): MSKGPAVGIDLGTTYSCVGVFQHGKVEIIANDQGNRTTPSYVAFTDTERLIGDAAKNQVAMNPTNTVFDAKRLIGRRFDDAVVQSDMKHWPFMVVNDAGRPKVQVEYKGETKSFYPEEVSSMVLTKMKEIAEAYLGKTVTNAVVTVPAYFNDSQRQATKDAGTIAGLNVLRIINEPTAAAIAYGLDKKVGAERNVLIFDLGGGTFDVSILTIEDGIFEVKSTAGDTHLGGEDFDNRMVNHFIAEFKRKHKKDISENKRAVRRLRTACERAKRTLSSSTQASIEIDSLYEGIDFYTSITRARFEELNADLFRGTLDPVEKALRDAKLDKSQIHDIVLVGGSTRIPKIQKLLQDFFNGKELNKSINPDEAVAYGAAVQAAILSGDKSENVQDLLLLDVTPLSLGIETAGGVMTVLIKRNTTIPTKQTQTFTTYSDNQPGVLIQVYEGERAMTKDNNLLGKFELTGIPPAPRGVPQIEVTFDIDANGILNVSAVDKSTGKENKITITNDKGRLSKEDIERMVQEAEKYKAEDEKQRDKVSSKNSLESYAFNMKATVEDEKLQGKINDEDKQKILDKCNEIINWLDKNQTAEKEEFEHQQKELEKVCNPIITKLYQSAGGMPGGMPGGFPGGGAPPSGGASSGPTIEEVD

In the case of `O=C(O)C1Nc2c(C(=O)N3CCOCC3)cccc2C2C=CCC12` (stereo unspecified), the IC50 in series [1] was > 100 µM (not active); in series [3], > 100 µM (not active); in series [4], 2.78 µM (not active); in [5] it was 0.0407 µM (not active); in series [6], > 100 µM (not active); in series [7], 15.9 µM (active). The EC50 in series [2] was 21.3 µM (inconclusive); in series [8], 45.1 µM (active).

Turning to `Fc1ccc(NC2=NN=C(c3cc(F)ccc3F)CS2)cc1`, the EC50 in [9] was 35.7 µM (inactive); in [10], 18.5 µM (active); in [11], 20.1 µM (active); in [12] it was 28.9 µM (inactive).

In the case of `Cn1c(Sc2ccc(Cl)cc2)c(C=O)c2ccccc21`, the EC50 was 1.63 µM (active) in [13] and 2.17 µM (active) in [17]. For the same compound, the IC50 was 1.15 µM (active) in [14], > 20 µM (inactive) in series [15], > 20 µM (inactive) in series [16] and 0.748 µM (active) in [18].

Consider `Cn1cnnc1SC1c2cccc3cccc(c23)C1NS(=O)(=O)c1ccccc1` (stereo unspecified), for which the EC50 in [9] is 46.7 µM (inactive); in series [12], 24.7 µM (inactive).

On to `COc1ccc(Oc2c(Cl)cnn(-c3cc(C)ccc3C)c2=O)cc1`, for which the IC50 in series [19] was 12.2 µM (inactive).

In the case of `CC(C)c1ccc(-n2ncc(Cl)c(Oc3ccc(Cl)c(Cl)c3)c2=O)cc1`, the IC50 in [19] is 15.9 µM (inactive).

Consider `Cc1ccc(OCCn2c(NC(=O)c3ccco3)nc3ccccc32)cc1`, for which the half-maximal effective concentration (EC50) in [20] is 15.8 µM (active); in [13], 3.15 µM (active); in [21], 13.1 µM (active); in series [22], 10.3 µM (active); in series [23] it was 1.6 µM (active); in [17] it was > 20 µM (inactive). In addition, the EC50 in [24] is 3.87 µM (active). The IC50 in [14] is 2.41 µM (active); in [15] it was > 20 µM (inactive); in [16], > 20 µM (inactive); in series [18] it was 4.87 µM (active).

As for `OCCN(CCO)c1nc(N2CCCCC2)c2nc(N(CCO)CCO)nc(N3CCCCC3)c2n1` [DIPYRIDAMOLE], the figures for the AC50 result in series [25], in [26] and in [27] were “inactive”, 8.87 µM (active) and 10 µM (active), respectively.
